Source: patent US10328075B2, “Method of treatment and compounds for use therein” (Baker Heart and Diabetes Institute, priority 2015, dated 2019)

System: rFpr1, rFpr2 expression in NRCM
Experiment: Fpr gene expression in neonatal rat cardiomyocytes (real-time PCR)
Format: cell-based
Conditions: 1 μM, 48 h incubation
Experimental: Isolation and culture of primary rat cardiomyocytes and mouse cardiac fibroblasts: All materials used for cell isolation were of tissue culture grade. Isolation of primary neonatal rat cardiac cardiomyocytes (NRCM) and adult mouse cardiac fibroblasts (AMCF) was performed by serial enzymatic digestion, as previously described (Irvine et al 2012 & Irvine et al. 3) NRCM were plated onto either 12-well tissue culture plates (for simulated ischemia-reperfusion, via hypoxia-reoxygenation, H-R) or 60 mm tissue culture dishes (for gene expression) at a density of 1.3×10^5 cells/cm^2, in the presence of 1% 5-bromo-2′-deoxyuridine. AMCF (passage #3) were seeded onto 60 mm tissue culture dishes at 9.5×10^4 cells/cm^2 and allowed to grow to 80% confluence prior to study. Following 48 h in serum-free DMEM, NRCM in 12-well tissue plates were subjected to simulated ischemia, induced by replacement of culture media with sterile-filtered Kreb's buffer (118 mM NaCl, 4.8 mM KCl, 1.2 mM KH2PO4, 1.2 mM MgSO4, 25 mM NaHCO3, […], 11.0 mM glucose, 1.75 mM CaCl2) prior to incubation for 6 h at 37° C. under hypoxia (95% N2-5% CO2, using a hypoxia chamber, QNA International, Melbourne, Australia). At the end of hypoxia, Kreb's buffer was replaced with fresh, sterile-filtered Kreb's buffer, in the presence or absence of FPR agonists Cmpd17b, Cmpd43 (both 1 μM or vehicle, and NRCM were subjected to 48 h reoxygenation at 37° C. At the end of 48 h reoxygenation, NRCM supernatant was collected for assessment of cardiomyocyte injury. Cardiomyocyte release of cTnI was determined using a commercially available, high-sensitivity rat cTnI ELISA kit (Life Diagnostic Inc.) as per the manufacturer's instructions. Separate NRVM on 60 mm dishes were incubated for 48 h at 37° C. in serum-free DMEM, in the presence or absence of FPR agonists Cmpd17b, Cmpd43 (both 1 μM) or vehicle. At the end of 48 h, RNA was extracted and real-time PCR performed (as described previously (Huynh et al. 2012)), to determine the relative gene expression of rat Fprs (rFpr1, rFpr2 and rFpr3, expressed as the threshold cycle number Ct subtracted from the maximum cycle number utilized, 40).

In the case of `COc1cccc(Cc2cc(C)nn(C(C)C(=O)Nc3ccc(Br)cc3)c2=O)c1` (stereo not shown) [BIDI-001, N-(4-bromophenyl)-2-[5-(3-methoxybenzyl)-3-methyl-6-oxo-6H-pyridazin-1-yl]-propionamide], the “NRCM expression of rFpr1” value is reported as “did not significantly influence” and the “NRCM expression of rFpr2” value is reported as “did not significantly influence”.

With `CC(C)C1C(NC(=O)Nc2ccc(Cl)cc2)C(=O)N(c2ccccc2)N1C` (stereo not shown) [BIDI-002] the “NRCM expression of rFpr1” value was “without impact” and the “NRCM expression of rFpr2” value was “tended to reduce”.
